Assay results: paper PMC7615656 (European journal of pharmacology, 2010)

Columns and labels:
[1] = target: recombinant rat α1β3γ2 receptors (Rattus norvegicus, UniProt P18508+P62813); test: Two-electrode voltage clamp of GABA-induced chloride currents in Xenopus oocytes; format: cell-based; conditions: for efficacy (% GABA EC3): α1β3γ2, ns = not significant
[2] = target: recombinant rat α3β3γ2F77I receptors (Rattus norvegicus, UniProt P18508+P20236, F115I); test: as above; format: cell-based; conditions: α3β3γ2F77I, ns = not significant
[3] = test system: GABAA receptors containing the γ2F77I mutation; test: Modulation of GABA EC3 in receptors containing the γ2F77I mutation; format: cell-based, rat; conditions: up to 100 nM
[4] = target: recombinant rat α1β3γ2F77I receptors (Rattus norvegicus, UniProt P18508+P62813, F115I); test: Two-electrode voltage clamp of GABA-induced chloride currents in Xenopus oocytes; format: cell-based; conditions: α1β3γ2F77I, ns = not significant
[5] = target: recombinant rat α4β3γ2F77I receptors (Rattus norvegicus, UniProt P18508+P28471, F115I); test: as above; format: cell-based; conditions: ns = not significant
[6] = target: recombinant rat α6β3γ2F77I receptors (Rattus norvegicus, UniProt P18508+P30191, F115I); test: as above; format: cell-based; conditions: ns = not significant
[7] = target: recombinant rat α5β3γ2F77I receptors (Rattus norvegicus, UniProt P18508+P19969, F115I); test: as above; format: cell-based; conditions: for efficacy (% GABA EC3): α5β3γ2F77I, ns = not significant
[8] = target: recombinant rat α2β3γ2F77I receptors (Rattus norvegicus, UniProt P18508+P23576, F115I); test: as above; format: cell-based; conditions: α2β3γ2F77I, ns = not significant
[9] = target: recombinant rat α2β3γ2 receptors (Rattus norvegicus, UniProt P18508+P23576); test: as above; format: cell-based; conditions: for efficacy (% GABA EC3): α2β3γ2, ns = not significant
[10] = target: recombinant rat α5β3γ2 receptors (Rattus norvegicus, UniProt P18508+P19969); test: as above; format: cell-based; conditions: for efficacy (% GABA EC3): α5β3γ2, ns = not significant
[11] = target: recombinant rat α6β3γ2 receptors (Rattus norvegicus, UniProt P18508+P30191); test: as above; format: cell-based; conditions: for efficacy (% GABA EC3): α6β3γ2, ns = not significant
[12] = target: recombinant rat α4β3γ2 receptors (Rattus norvegicus, UniProt P18508+P28471); test: as above; format: cell-based; conditions: for efficacy (% GABA EC3): α4β3γ2, ns = not significant
[13] = target: recombinant rat α3β3γ2 receptors (Rattus norvegicus, UniProt P18508+P20236); test: as above; format: cell-based; conditions: for efficacy (% GABA EC3): α3β3γ2, ns = not significant

Chain of recombinant rat α5β3γ2F77I receptors (P19969 32-464 limits assumed): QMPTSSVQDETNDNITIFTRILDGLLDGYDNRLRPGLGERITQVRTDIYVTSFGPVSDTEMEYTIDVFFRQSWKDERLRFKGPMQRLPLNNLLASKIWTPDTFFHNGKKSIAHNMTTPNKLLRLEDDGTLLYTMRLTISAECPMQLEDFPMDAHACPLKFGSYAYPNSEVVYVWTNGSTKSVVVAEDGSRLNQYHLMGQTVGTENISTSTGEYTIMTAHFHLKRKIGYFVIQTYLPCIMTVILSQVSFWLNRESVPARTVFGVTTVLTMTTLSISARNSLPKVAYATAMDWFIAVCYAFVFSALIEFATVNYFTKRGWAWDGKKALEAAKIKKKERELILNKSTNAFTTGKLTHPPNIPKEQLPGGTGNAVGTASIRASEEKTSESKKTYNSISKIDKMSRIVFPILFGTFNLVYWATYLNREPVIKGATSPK
Chain of recombinant rat α5β3γ2F77I receptors (P63079 26-473 partner): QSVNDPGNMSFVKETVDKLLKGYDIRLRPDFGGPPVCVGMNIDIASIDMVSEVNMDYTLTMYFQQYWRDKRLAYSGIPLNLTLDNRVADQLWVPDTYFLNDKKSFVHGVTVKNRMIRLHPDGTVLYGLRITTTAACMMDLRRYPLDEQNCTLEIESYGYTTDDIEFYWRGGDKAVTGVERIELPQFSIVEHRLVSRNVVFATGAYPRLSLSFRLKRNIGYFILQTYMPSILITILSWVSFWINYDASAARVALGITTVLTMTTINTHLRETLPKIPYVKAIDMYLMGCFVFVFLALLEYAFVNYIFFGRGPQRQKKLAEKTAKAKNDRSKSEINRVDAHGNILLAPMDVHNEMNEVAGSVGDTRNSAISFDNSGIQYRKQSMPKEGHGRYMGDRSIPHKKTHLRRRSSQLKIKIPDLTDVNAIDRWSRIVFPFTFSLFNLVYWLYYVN
Chain of recombinant rat α5β3γ2F77I receptors (P18508 39-466 F115I): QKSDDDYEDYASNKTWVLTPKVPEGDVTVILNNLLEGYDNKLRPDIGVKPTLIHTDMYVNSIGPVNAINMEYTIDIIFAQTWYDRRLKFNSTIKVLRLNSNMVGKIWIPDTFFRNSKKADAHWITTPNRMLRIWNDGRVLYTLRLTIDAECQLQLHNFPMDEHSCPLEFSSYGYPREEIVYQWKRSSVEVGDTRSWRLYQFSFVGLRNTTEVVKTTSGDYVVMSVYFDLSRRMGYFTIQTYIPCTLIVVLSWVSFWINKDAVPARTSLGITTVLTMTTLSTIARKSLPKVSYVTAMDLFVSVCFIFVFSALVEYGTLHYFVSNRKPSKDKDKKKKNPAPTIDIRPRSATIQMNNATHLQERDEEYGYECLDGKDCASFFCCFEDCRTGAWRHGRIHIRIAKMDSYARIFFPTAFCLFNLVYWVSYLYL
Chain of recombinant rat α5β3γ2 receptors (P19969 32-464 limits assumed): as the sequence (P19969 32-464 limits assumed) above
Chain of recombinant rat α5β3γ2 receptors (P63079 26-473 partner): as the sequence (P63079 26-473 partner) above
Chain of recombinant rat α5β3γ2 receptors (P18508 39-466): as the sequence (P18508 39-466 F115I) above, with I77F counted along it
Chain of recombinant rat α4β3γ2F77I receptors (P28471 36-552): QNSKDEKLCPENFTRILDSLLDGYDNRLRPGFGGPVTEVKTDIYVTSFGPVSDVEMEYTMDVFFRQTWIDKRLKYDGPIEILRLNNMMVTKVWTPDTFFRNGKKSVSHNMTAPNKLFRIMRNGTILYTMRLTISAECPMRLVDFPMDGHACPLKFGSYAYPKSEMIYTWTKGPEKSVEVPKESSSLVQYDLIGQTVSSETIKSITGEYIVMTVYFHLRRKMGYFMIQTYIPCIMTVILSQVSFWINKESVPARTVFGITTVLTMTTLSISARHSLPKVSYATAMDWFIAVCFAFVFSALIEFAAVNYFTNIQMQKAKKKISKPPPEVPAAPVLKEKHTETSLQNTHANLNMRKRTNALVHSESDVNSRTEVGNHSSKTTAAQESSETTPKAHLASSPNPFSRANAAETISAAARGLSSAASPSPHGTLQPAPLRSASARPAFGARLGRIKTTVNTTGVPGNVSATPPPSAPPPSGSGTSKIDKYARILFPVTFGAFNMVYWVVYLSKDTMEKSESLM
Chain of recombinant rat α4β3γ2F77I receptors (P63079 26-473 partner): as the sequence (P63079 26-473 partner) above
Chain of recombinant rat α4β3γ2F77I receptors (P18508 39-466 F115I): as the sequence (P18508 39-466 F115I) above

CC(C)(C)OC(=O)c1ncn2c1[C@@H]1CCCN1C(=O)c1c(Br)cccc1-2 [Bretazenil, t-butyl(s)-8-bromo-11,12,13,13a-tetrahydro-9-oxo-9H-imidazo[1,5-a] pyrrolo[2,1-c][1,4]benzodiazepine-1-carboxylate]
EC50 [1]: 4 ± 1 nM | efficacy (% GABA EC3) ([1]; 10 nM): 126 ± 5 % GABA EC3 | efficacy (% GABA EC3) ([1]; 100 nM): 134 ± 7 % GABA EC3 | efficacy (% GABA EC3) ([1]; 1 μM): 136 ± 9 % GABA EC3 | efficacy (% GABA EC3) ([1]; 10 μM): 138 ± 10 % GABA EC3 | efficacy (% GABA EC3) ([2]; 10 nM): ns | efficacy (% GABA EC3) ([2]; 100 nM): 117 ± 3 % GABA EC3 | efficacy (% GABA EC3) ([2]; 1 μM): 143 ± 7 % GABA EC3 | efficacy (% GABA EC3) ([2]; 10 μM): 238 ± 15 % GABA EC3 | activity in the mutated receptors [3]: inactive | efficacy (% GABA EC3) ([4]; 10 nM): ns | efficacy (% GABA EC3) ([4]; 100 nM): 120 ± 6 % GABA EC3 | efficacy (% GABA EC3) ([4]; 1 μM): 149 ± 12 % GABA EC3 | efficacy (% GABA EC3) ([4]; 10 μM): 164 ± 21 % GABA EC3 | efficacy (% GABA EC3) ([5]; 10 nM): ns | efficacy (% GABA EC3) ([5]; 100 nM): ns | efficacy (% GABA EC3) ([5]; 1 μM): ns | efficacy (% GABA EC3) ([5]; 10 μM): ns | efficacy (% GABA EC3) ([6]; 10 nM): ns | efficacy (% GABA EC3) ([6]; 100 nM): ns | efficacy (% GABA EC3) ([6]; 1 μM): ns | efficacy (% GABA EC3) ([6]; 10 μM): ns | EC50 [7]: > 748 nM | efficacy (% GABA EC3) ([7]; 10 nM): ns | efficacy (% GABA EC3) ([7]; 100 nM): 124 ± 3 % GABA EC3 | efficacy (% GABA EC3) ([7]; 1 μM): 193 ± 8 % GABA EC3 | efficacy (% GABA EC3) ([7]; 10 μM): 249 ± 11 % GABA EC3 | efficacy (% GABA EC3) ([8]; 10 nM): ns | efficacy (% GABA EC3) ([8]; 1 μM): 125 ± 3 % GABA EC3 | efficacy (% GABA EC3) ([8]; 10 μM): 179 ± 8 % GABA EC3 | EC50 [9]: 7 ± 1 nM | efficacy (% GABA EC3) ([9]; 10 nM): 119 ± 4 % GABA EC3 | efficacy (% GABA EC3) ([9]; 100 nM): 128 ± 5 % GABA EC3 | efficacy (% GABA EC3) ([9]; 1 μM): 130 ± 7 % GABA EC3 | efficacy (% GABA EC3) ([9]; 10 μM): 129 ± 10 % GABA EC3 | EC50 [10]: 9 ± 2 nM | efficacy (% GABA EC3) ([10]; 10 nM): 168 ± 13 % GABA EC3 | efficacy (% GABA EC3) ([10]; 100 nM): 205 ± 17 % GABA EC3 | efficacy (% GABA EC3) ([10]; 1 μM): 216 ± 22 % GABA EC3 | efficacy (% GABA EC3) ([10]; 10 μM): 228 ± 23 % GABA EC3 | EC50 [11]: > 322 nM | efficacy (% GABA EC3) ([11]; 10 nM): ns | efficacy (% GABA EC3) ([11]; 100 nM): ns | efficacy (% GABA EC3) ([11]; 1 μM): 202 ± 12 % GABA EC3 | efficacy (% GABA EC3) ([11]; 10 μM): 231 ± 13 % GABA EC3 | EC50 [12]: > 354 nM | efficacy (% GABA EC3) ([12]; 10 nM): ns | efficacy (% GABA EC3) ([12]; 100 nM): 156 ± 11 % GABA EC3 | efficacy (% GABA EC3) ([12]; 1 μM): 332 ± 23 % GABA EC3 | efficacy (% GABA EC3) ([12]; 10 μM): 395 ± 8 % GABA EC3 | EC50 [13]: 15 ± 2 nM | efficacy (% GABA EC3) ([13]; 10 nM): 154 ± 6 % GABA EC3 | efficacy (% GABA EC3) ([13]; 100 nM): 213 ± 11 % GABA EC3 | efficacy (% GABA EC3) ([13]; 1 μM): 224 ± 14 % GABA EC3 | efficacy (% GABA EC3) ([13]; 10 μM): 234 ± 17 % GABA EC3
